For data set [1], the system named is plaque macrophages. Description: Cytotoxicity to plaque macrophages ex vivo. Type of data set: cell-based. An excerpt: Two of the hits from the screen passed all the specificity tests, and one of these has been characterized to some extent in vivo (FIG. 10). […] Thus, the discovered compounds, especially #008 and #7933989, served as a starting point for other compounds with affinity for p32. Orally available compounds provide significant new opportunities in prevention and treatment of atherosclerosis.

The subject of data set [2] is orthotopic MCF10Ca1A breast tumors. Description: In vivo homing of iron oxide nanoworms in tumor-bearing mice. Particulars: IV, 7.5 mg Fe/kg, 5-6 hours circulation. Here is the method: FIG. 10 is a graph of nanoparticles functionalized with compound #008 homing to tumors and atherosclerotic plaques. Orthotopic MCF10Ca1Abreast tumors from mice injected with iron oxide […] (NWs) (7.5 mg/kg of Fe) coated with FAM-#008 or with an inert peptide (control). The NWs were allowed to circulate for 5 hours, the mice were perfused through the heart with PBS and tumors, and organs were collected. Quantification of fluorescence carried out with ImageJ software. Multiple sections from three tumors were analyzed (P<0.0001, Student's t-test).
Animal experimentation was performed according to the procedures approved by the Animal Research Committee at the Sanford-Burnham Medical Research Institute, San Diego. […] FAM labeled #4014008-NWs were injected into the tail vein (7.5 mg of iron per kilogram of body weight), the animals were euthanized 5-6 hours after the injection by cardiac perfusion with PBS under anesthesia, and organs were dissected and analyzed for particle homing. […]
For immunostaining, […] tissue sections were first incubated for 1 hour at room temperature with 10% serum from the species in which the secondary antibody was generated, followed by incubation with the primary antibody overnight at 4° C. […] The primary antibodies were detected with Alexa 594 goat anti-rat and 594 goat anti-rabbit secondary antibodies (1:1000; Molecular Probes). […]

In data set [3] the test system is atherosclerotic plaques. Description: Plaque homing of FAM-labeled #008-NWs in atherosclerotic mouse. Particulars: 1 mg/ml, 200 μl, IV, two hours circulation; listed as #008. Type of data set: in vivo.
Data set [4] has as its target T1, p32 protein (Homo sapiens, UniProt Q07021).
T1 construct: 6xHis; host or cells: Rosetta-gami-2 cells (Novagen); an E. coli strain by own knowledge
T1 sequence (Q07021 74-282): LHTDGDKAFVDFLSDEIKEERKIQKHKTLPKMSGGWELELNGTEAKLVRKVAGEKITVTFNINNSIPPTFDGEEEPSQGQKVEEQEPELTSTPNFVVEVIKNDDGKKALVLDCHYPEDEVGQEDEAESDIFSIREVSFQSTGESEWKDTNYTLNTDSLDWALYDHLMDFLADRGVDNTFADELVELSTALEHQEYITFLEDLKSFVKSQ
As to the kind of experiment: Fluorescence polarization assay: displacement of FAM-TT1 from p32 (HTS, dose response, unlabeled peptide competition). Type of data set: binding. Here is the method: Fluorescence polarization (FP)-based assay was used for solution-based screening of compound libraries for p32 binding compounds. […] In FP assay, peptide conjugated with a fluorescent label (fluorescein-AM, FAM) is excited with polarized light. […] 6×-His-Tagged p^32 was expressed in Rosetta-gami-2 cells (Novagen). The protein was purified by IMAC using HIS-select resin (Sigma) with an imidizole gradient from 20-300 mM and eluted fractions were analyzed on analytical SDS-PAGE. […] Fluorescence polarization is given as milli-polarization (mP) value, which is obtained from equation (1):
mP=1000*(S−P)/(S+P), (Eq. 1)
The assay was initially set up in 20 μl well volume in 384 well plate (Corning Life Sciences), and measurements were carried out using PheraStar FS plate reader (BMG LABTECH, Ortenberg, Germany) in quadruplicate. Peptide and protein stock solutions were diluted to desired concentration with assay buffer (50 mM BIS-TRIS pH 7.4, 0.05% Tween20, 1 mM DTT). FAM-labeled peptides were protected from light during the experiment to avoid photobleaching. Optimal concentration of fluorescein (FAM) labeled-peptides for the assay was determined by measuring the limit of detection (LOD), signal-to-background ratio (S/B), and stability of mP value over series of peptide concentrations. In the binding assay, the concentration of FAM-peptide was kept constant, and the FP was measured over the range of target protein concentrations. The peptide dissociation constant (KD) was obtained by fitting the binding curve into Michaelis-Menten kinetics in GraphPad Prism-software (GraphPad Software, Inc., CA, USA).
FAM-TT-1 and p32 solutions are prepared just before experiment, and stored on ice during the screen; the peptide is shielded from light. • 1. […] Dispense 1.5 μL of assay buffer (50 mM BIS-TRIS pH 7.4, 0.05% Tween 20, 1 mM DTT) into columns 1-4 • 3. […] Dispense 37.5 nL of compounds (2 mM) into columns 5-44 • 5. Spin plate • 6. Incubate 20 min • 7. Dispense 1.5 μL FAM-TT-1 peptide (20 nM) into all columns • 8. Shake plate and spin plate • 9. Incubate 25 min • 10. Read plate on PheraStar FS
Chemical library of ˜50,000 compounds from ChemBridge (San Diego, Calif.) was screened in High-Throughput Screening Facility at Conrad Prebys Center for Chemical Genomics (Sanford-Burnham Medical Research Institute, La Jolla, Calif.). […] Peptide and protein were diluted immediately prior to screening, kept on ice during screening, and FAM-peptide was protected from light throughout the experiment. […]

“Also recorded” adds a separate entry of the source.

Take `Cc1cnccc1NCCN` [Compound 4014008, N-(3-methylpyridin-4-yl)ethane-1,2-diamine]: the “cytotoxicity to plaque macrophages” value in data set [1] was “cytotoxic to plaque macrophages”. The “homing to MCF10Ca1A tumors” value in data set [2] was “specifically home to tumors”. Moreover, the “nanoparticle homing/accumulation in plaques” value in data set [3] is reported as “specifically home; also recorded: directs nanoparticle accumulation in plaques”. Besides, testing at 25 µM in data set [4] (high-throughput screen hits, inhibition of TT1-p32 interaction, library compounds 25 μM (Table 1), b410 says 100 μM) gave an inhibition of 29.9%. In addition, in data set [4] (highest concentration used, 100 μM, read-out: inhibition of FAM-TT1 binding to p32 in FP assay), the inhibition – broadly, how much of the control response was suppressed – at 100 µM was determined as 75%.

For the origin of these results see patent US20200268832A1, “COMPOSITIONS FOR DELIVERY TO AND TREATMENT OF ATHEROSCLEROTIC PLAQUES” (Sanford Burnham Prebys Medical Discovery Institute, priority 2015, published 2020).
